Source: patent US7163696B2, “Pharmaceutical formulations” (Pfizer Inc., priority 2001, dated 2007)

Key:
[1] = Bioavailability testing by the applicants (unpublished); settings: in vivo
[2] = Measurement of Papp values across Caco-2 cell monolayers (Example 15); type: in vitro ADME; settings: human, initial concentration in donor (apical) chamber 25 μM, 37° C.
Source text: P Artursson and J Karlsson described the use of monolayers of Caco-2 cells to generate apparent permeability coefficients (Papp values) for drug absorption across the intestinal epithelium in ‘Correlation between oral drug absorption in humans and apparent drug permeability coefficients in human intestinal epithelial (Caco-2) cells’, Biochemical and Biophysical Research Communications, Vol 175 (3), pp 880–885, 1991.
Preferably, when measuring the Papp value, the initial concentration of test compound in the donor chamber is at a relevant therapeutic concentration, for example 25 μM.
Caco-2 cells originating from a human colon carcinoma were obtained from the ATCC (HTB-37) and were used between passage number 24–44. Cells were maintained in MEM with Earles salts containing 2 mM L-glutamine, 1 mM sodium pyruvate, 1% (v/v) MEM non-essential amino acids (Gibco) and 20% foetal calf serum (Sigma) at 37° C. in an atmosphere of 5% CO2 and 90% relative humidity. Falcon 24 well filter inserts (Becton Dickinson) were seeded with 4×10^4 cells/well. […]
Transport data across the Caco-2 cell monolayers is expressed as Papp values. Papp values are calculated according to the equation disclosed by Artursson and Karlsson as follows: Papp=(dQ/dt)(1/AC0), wherein dQ/dt is the permeability rate, Co the initial concentration in the donor chamber, and A the surface area of the monolayer.

absorption from the colon [1] | Papp A→B at 2 h, 25 μM [2] [×10⁻⁶ cm/s] | Structure (SMILES)
low, and highly variable | – | COc1cc2nc(N3CCc4c(cccc4NS(C)(=O)=O)C3)nc(N)c2c(-c2ccccn2)c1OC [4-amino-6,7-dimethoxy-2-(5-methanesulfonamido-1,2,3,4-tetrahydroisoquinol-2-yl)-5-(2-pyridyl)quinazoline]
– | 11 | COc1cc2nc(N3CCc4c(cccc4NS(C)(=O)=O)C3)nc(N)c2c(-c2ccccn2)c1OC.CS(=O)(=O)O [4-amino-6,7-dimethoxy-2-(5-methanesulfonamido-1,2,3,4-tetrahydroisoquinol-2-yl)-5-(2-pyridyl)quinazoline mesylate]
